According to PubChem BioAssay (NCI):
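Compound exposure: 48 hours, 5 concentrations, 96-well plates. The concentration for 50% growth inhibition is given as GI50. The concentration for full growth arrest is given as TGI.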

How the values were obtained:
Assay in all cases: growth of human tumour cells (NCI), 48 h
SN12C renal = tested on: SN12C renal
SF-295 CNS = tested on: SF-295 CNS
K-562 leukemia = tested on: K-562 leukemia
NCI-H23 lung = tested on: NCI-H23 lung
COLO 205 colon = tested on: COLO 205 colon
SK-MEL-5 melanoma = tested on: SK-MEL-5 melanoma
SR leukemia = tested on: SR leukemia
MALME-3M melanoma = tested on: MALME-3M melanoma
IGROV1 ovarian = tested on: IGROV1 ovarian
KM12 colon = tested on: KM12 colon
U251 CNS = tested on: U251 CNS
SNB-75 CNS = tested on: SNB-75 CNS
EKVX NSCLC = tested on: EKVX NSCLC
SK-MEL-2 melanoma = tested on: SK-MEL-2 melanoma
UO-31 renal = tested on: UO-31 renal
PC-3 prostate = tested on: PC-3 prostate
LOX IMVI melanoma = tested on: LOX IMVI melanoma
HCC-2998 colon = tested on: HCC-2998 colon
SK-MEL-28 melanoma = tested on: SK-MEL-28 melanoma
OVCAR-5 ovarian = tested on: OVCAR-5 ovarian
SK-OV-3 ovarian = tested on: SK-OV-3 ovarian
CAKI-1 renal = tested on: CAKI-1 renal
TK-10 renal = tested on: TK-10 renal
NCI-H460 lung = tested on: NCI-H460 lung
HT29 colon = tested on: HT29 colon
UACC-257 melanoma = tested on: UACC-257 melanoma
ACHN renal = tested on: ACHN renal
HCT-116 colon = tested on: HCT-116 colon
MDA-MB-435 = tested on: MDA-MB-435
M14 melanoma = tested on: M14 melanoma
OVCAR-8 ovarian = tested on: OVCAR-8 ovarian
NCI-H226 lung = tested on: NCI-H226 lung
SW-620 colon = tested on: SW-620 colon
DU-145 prostate = tested on: DU-145 prostate
OVCAR-4 ovarian = tested on: OVCAR-4 ovarian
CCRF-CEM leukemia = tested on: CCRF-CEM leukemia
UACC-62 melanoma = tested on: UACC-62 melanoma
A549 NSCLC = tested on: A549 NSCLC
NCI-H522 lung = tested on: NCI-H522 lung
A498 renal = tested on: A498 renal
BT-549 breast = tested on: BT-549 breast
HCT-15 colon = tested on: HCT-15 colon
OVCAR-3 ovarian = tested on: OVCAR-3 ovarian
T-47D breast = tested on: T-47D breast
SNB-19 CNS = tested on: SNB-19 CNS
786-0 renal = tested on: 786-0 renal
HOP-62 NSCLC = tested on: HOP-62 NSCLC
MCF7 breast = tested on: MCF7 breast
SF-539 CNS = tested on: SF-539 CNS
MDA-MB-231 breast = tested on: MDA-MB-231 breast
HL-60(TB) leukemia = tested on: HL-60(TB) leukemia
HS 578T breast = tested on: HS 578T breast
RXF 393 renal = tested on: RXF 393 renal
HOP-92 NSCLC = tested on: HOP-92 NSCLC
NCI/ADR-RES ovarian = tested on: NCI/ADR-RES ovarian
MOLT-4 leukemia = tested on: MOLT-4 leukemia
RPMI-8226 leukemia = tested on: RPMI-8226 leukemia
SF-268 CNS = tested on: SF-268 CNS

## Cc1cc(I)cc(CN(C)CCCN2CCCCCCC2)c1O
SN12C renal
  GI50: 18 µM
  TGI: 41.1 µM
SF-295 CNS
  GI50: 7.38 µM
  TGI: 23 µM
K-562 leukemia
  GI50: 2.46 µM
  TGI: 23.8 µM
NCI-H23 lung
  GI50: 18.1 µM
  TGI: 48.7 µM
COLO 205 colon
  GI50: 17.4 µM
  TGI: 37.1 µM
SK-MEL-5 melanoma
  GI50: 6.94 µM
  TGI: 19.4 µM
SR leukemia
  GI50: 2.11 µM
  TGI: 14.6 µM
MALME-3M melanoma
  GI50: 19.5 µM
  TGI: 36.1 µM
IGROV1 ovarian
  GI50: 15.4 µM
  TGI: 32 µM
KM12 colon
  GI50: 14.2 µM
  TGI: 31 µM
U251 CNS
  GI50: 15 µM
  TGI: 29.2 µM
SNB-75 CNS
  GI50: 15.4 µM
  TGI: 30.2 µM
EKVX NSCLC
  GI50: 16 µM
  TGI: 37.6 µM
SK-MEL-2 melanoma
  GI50: 21.8 µM
  TGI: 41.7 µM
UO-31 renal
  GI50: 11.8 µM
  TGI: 26.2 µM
PC-3 prostate
  GI50: 15.8 µM
  TGI: 32.7 µM
LOX IMVI melanoma
  GI50: 16.2 µM
  TGI: 30.9 µM
HCC-2998 colon
  GI50: 18.1 µM
  TGI: 36.8 µM
SK-MEL-28 melanoma
  GI50: 15.3 µM
  TGI: 31.2 µM
OVCAR-5 ovarian
  GI50: 18.8 µM
  TGI: 41.5 µM
SK-OV-3 ovarian
  GI50: 18.7 µM
  TGI: 35.9 µM
CAKI-1 renal
  GI50: 13.8 µM
  TGI: 28 µM
TK-10 renal
  GI50: 13.4 µM
  TGI: 27 µM
NCI-H460 lung
  GI50: 13.7 µM
  TGI: 28.3 µM
HT29 colon
  GI50: 6.26 µM
  TGI: 21.1 µM
UACC-257 melanoma
  GI50: 16.2 µM
  TGI: 34.3 µM
ACHN renal
  GI50: 18.1 µM
  TGI: 32.4 µM
HCT-116 colon
  GI50: 11.8 µM
  TGI: 28.3 µM
MDA-MB-435
  GI50: 13.2 µM
  TGI: 30.1 µM
M14 melanoma
  GI50: 15.5 µM
  TGI: 33.2 µM
OVCAR-8 ovarian
  GI50: 19.8 µM
  TGI: 43.4 µM
NCI-H226 lung
  GI50: 16.3 µM
  TGI: 35 µM
SW-620 colon
  GI50: 16.2 µM
  TGI: 30.8 µM
DU-145 prostate
  GI50: 17.8 µM
  TGI: 38 µM
OVCAR-4 ovarian
  GI50: 19.7 µM
  TGI: 58.5 µM
CCRF-CEM leukemia
  GI50: 6.22 µM
  TGI: 21.9 µM
UACC-62 melanoma
  GI50: 6 µM
  TGI: 18 µM
A549 NSCLC
  GI50: 20.1 µM
  TGI: 45.5 µM
NCI-H522 lung
  GI50: 19.3 µM
  TGI: 38.4 µM
A498 renal
  GI50: 17.2 µM
  TGI: 32.9 µM
BT-549 breast
  GI50: 13.1 µM
  TGI: 26.7 µM
HCT-15 colon
  GI50: 10.9 µM
  TGI: 23.3 µM
OVCAR-3 ovarian
  GI50: 14.8 µM
  TGI: 29.1 µM
T-47D breast
  GI50: 19.6 µM
  TGI: 52.8 µM
SNB-19 CNS
  GI50: 20.4 µM
  TGI: 44.5 µM
786-0 renal
  GI50: 12.7 µM
  TGI: 26.3 µM
HOP-62 NSCLC
  GI50: 16.4 µM
  TGI: 32.2 µM
MCF7 breast
  GI50: 14.2 µM
  TGI: 30.6 µM
SF-539 CNS
  GI50: 15.1 µM
  TGI: 29.2 µM
MDA-MB-231 breast
  GI50: 14.9 µM
  TGI: 29.6 µM
HL-60(TB) leukemia
  GI50: 2.26 µM
  TGI: 7.97 µM
HS 578T breast
  GI50: 15.7 µM
  TGI: 33.7 µM
RXF 393 renal
  GI50: 14.3 µM
  TGI: 35.1 µM
HOP-92 NSCLC
  GI50: 11.6 µM
  TGI: 29.8 µM
NCI/ADR-RES ovarian
  GI50: 20.1 µM
  TGI: 45.3 µM
MOLT-4 leukemia
  GI50: 3.7 µM
  TGI: 19.9 µM
RPMI-8226 leukemia
  GI50: 7.9 µM
  TGI: 24.2 µM
SF-268 CNS
  GI50: 14.9 µM
  TGI: 31.3 µM
